Measurements taken from patent US20100129800A1, “POLYMERS AND THEIR USE AS FLUORESCENT LABELS” (priority 2007, published 2010).

Test: Fluorescence properties of the new compounds (excitation and emission wavelengths)
Format: physicochemical
Details: not given

Structure (SMILES)	Fluorescence Excitation (nm)	Fluorescence emission (nm)
CC(O)C(COP(=O)(O)OC(C)C(CO)NC(=O)c1cc(-c2ccccc2)nc2ccccc12)NC(=O)c1c2ccccc2nc2c1[nH]c1ccccc12 (stereo not drawn) [Example 37, O-{2-N-(2-phenylquinoline-4-carbamoyl-1-hydroxybutan-3-yl)} and O-(2-N-{10H-indolo[3,2-d]quinoline-11-carbamoyl}-3-hydroxybut-1-yl)]	342 nm	492 nm

Same assay, conditions: free compound

Structure (SMILES)	Fluorescence Excitation (nm)	Fluorescence emission (nm)
CC(O)C(COP(=O)(O)OC(C)C(CO)NC(=O)c1cc(-c2ccccc2)nc2ccccc12)NC(=O)c1cc(-c2ccccc2)nc2ccccc12 (stereo not drawn) [Example 35, O-{2-N-(2-phenylquinoline-4-carbamoyl-1-hydroxybutan-3-yl)} and O-{2-N-(2-phenylquinoline-4-carbamoyl-3-hydroxybutan-1-yl)} phosphate]	330 nm	395 nm
CC(O)C(COP(=O)(O)OC(C)C(CO)NC(=O)c1c2ccccc2nc2ccccc12)NC(=O)c1cc(-c2ccccc2)nc2ccccc12 (stereo not drawn) [Example 36, O-{2-N-(acridine-9-carbamoyl)-1-hydroxybut-3-yl} and O-{2-N-(2-phenylquinoline-4-carbamoyl-3-hydroxybutan-1-yl)} phosphate]	252 nm	403 nm
CC(O)C(COP(=O)(O)OC(C)C(COP(=O)(O)OC(C)C(CO)NC(=O)c1c2ccccc2nc2ccccc12)NC(=O)c1c2ccccc2nc2c1[nH]c1ccccc12)NC(=O)CNC(=O)c1c2ccccc2nc2ccccc12 (stereo not drawn) [Example 38, O-{2-N-(Acridine-9-carbamoyl)-(1-hydroxybut-3-yl)} phosphate (3-1) O-{2-N-(10H-indolo[3,2-d]quinoline-11-carbamoyl)-3-oxybut-1-yl} phosphate (3-1) O-{2-N-(acridine-9-carboxamido)acetamidol-(3-hydroxybut-1-yl)}]	359 nm	438 nm
CC(OP(=O)(O)OCC(O)CNc1c2nc3ccccc3c-2n(C)c2ccccc12)C(CO)NC(=O)c1c2ccccc2nc2c1[nH]c1ccccc12 [Example 41, O-{2-N-(10H-indolo[3,2-d]quinoline-11-carbamoyl)-3-oxybut-1-yl} phosphate (3-1) O-{3-(5-methyl-5H-indolo[3,2-b]quinolin-11-ylamino-(S)-(2hydroxylprop-3-yl)]	275 nm	476 nm
CC(O)C(COP(=O)(O)OC(C)C(COP(=O)(O)OC(C)C(CO)NC(=O)c1c2ccccc2nc2ccccc12)NC(=O)c1c2ccccc2nc2ccccc12)NC(=O)c1c2ccccc2nc2ccccc12 (stereo not drawn) [Example 43, O-{2-N-(Acridine-9-carbamoyl)-(1-hydroxybut-3-yl)} phosphate (3-1) O-{2-N-(acridine-9-carbamoyl)-(1-hydroxybut-3-yl)} phosphate (3-1) O-{2-N-(acridine-9-carbamoyl)-(3-hydroxybut-1-yl)}]	360 nm	440 nm
CC(O)C(COP(=O)(O)OC(C)C(COP(=O)(O)OC(C)C(CO)NC(=O)c1c2ccccc2nc2ccccc12)NC(=O)c1c2ccccc2nc2c1[nH]c1ccccc12)NC(=O)Cn1c2nc3ccccc3c-2cc2ccccc21 (stereo not drawn) [Example 45, O-{2-N-(Acridine-9-carbamoyl)-(1-hydroxybut-3-yl)} phosphate (3-1) O-{2-N-(10H-indolo[3,2-d]quinoline-11-carbamoyl)-3-oxybut-1-yl} phosphate (3-1) O-{2-N-(5H-indolo[2,3-b]quinolin-5-yl)acetamido-3-hydroxybut-1-yl)]	271 nm	449 nm
CC(=O)NCCN(CC(=O)NCCN(CC(=O)NCCCCCCO)C(=O)CNC(=O)c1c2ccccc2nc2ccccc12)C(=O)CNC(=O)c1c2ccccc2nc2ccccc12 [Example 46]	248 nm	441 nm
CC(=O)NCCN(CC(=O)NCCN(CC(=O)NCCN(CC(=O)NCCCCCCO)C(=O)CNC(=O)c1c2ccccc2nc2ccccc12)C(=O)CNC(=O)c1c2ccccc2nc2ccccc12)C(=O)CNC(=O)c1c2ccccc2nc2ccccc12 [Example 47]	360 nm	436 nm
CC(=O)NC1CC(C(N)=O)N(C(=O)CNC(=O)c2c3ccccc3nc3ccccc23)C1 (stereo not drawn) [Example 50, N-[2-(Acridine-9-carboxamide)acetyl]-4-N-acetamidoprolinamide]	282 nm	439 nm
CC(=O)NC1CC(C(N)=O)N(C(=O)CNC(=O)c2c3ccccc3nc3c2[nH]c2ccccc23)C1 (stereo not drawn) [Example 51, N-{2-(10H-indolo[3,2-b]quinoline-11-carboxamide)acetyl}-4-N-acetamidoprolinamide]	347 nm	502 nm
CC(=O)N1CC(NC(=O)CNC(=O)c2c3ccccc3nc3ccccc23)C[C@H]1C(=O)N1CC(NC(=O)CNC(=O)c2c3ccccc3nc3ccccc23)C[C@H]1C(N)=O (stereo partly drawn) [Example 52, N^4-Acetyl-4-amino-{2-(acridine-9-carboxamide)acetyl}prolinyl-4-amino-{2-(acridine-9-carboxamide)acetyl}prolinamide]	274 nm	450 nm
CC(=O)N1CC(NC(=O)CNC(=O)c2c3ccccc3nc3c2[nH]c2ccccc23)C[C@H]1C(=O)N1CC(NC(=O)CNC(=O)c2c3ccccc3nc3c2[nH]c2ccccc23)C[C@H]1C(N)=O (stereo partly drawn) [Example 53, N^4-Acetyl-4-amino-{2-(10H-indolo[3,2-b]quinoline-11-carboxamide)acetyl}prolinyl-4-amino-{2-(10H-indolo[3,2-b]quinoline-11-carboxamide)acetyl}prolinamide]	348 nm	

Now from value to molecule:

Fluorescence Excitation (nm)	Fluorescence emission (nm)	Structure (SMILES)
273 nm	498 nm	CC(=O)NC1CC(C(=O)NC2CC(C(N)=O)N(C(=O)CNC(=O)c3c4ccccc4nc4ccccc34)C2)N(C(=O)CNC(=O)c2c3ccccc3nc3c2[nH]c2ccccc23)C1 (stereo not drawn) [Example 54, 10H-Indolo[3,2-b]quinoline-11-carboxylic acid {2-[4-acetylamino-2-(1-{2-[(acridine-9-carbonyl)-amino]-acetyl}-5-carbamoyl-pyrrolidin-3-ylcarbamoyl)-pyrrolidin-1-yl]-2-oxo-ethyl}-amide]
308 nm	500 nm	CC(=O)NC1CC(C(=O)NC2CC(C(N)=O)N(C(=O)CNC(=O)c3c4ccccc4nc4c3[nH]c3ccccc34)C2)N(C(=O)CNC(=O)c2c3ccccc3nc3ccccc23)C1 (stereo not drawn) [Example 55, 10H-Indolo[3,2-b]quinoline-11-carboxylic acid (2-{4-[4(4-acetylamino-1-{2-[(acridine-9-carbonyl)-amino]-acetyl}-pyrrolidine-2-carbonyl)-amino]-2-carbamoyl-pyrrolidin-1-yl}-2-oxo-ethyl)-amide]
275 nm	440 nm	CC(=O)NC1CC(C(=O)NC2CC(C(=O)NC3CC(C(N)=O)N(C(=O)CNC(=O)c4c5ccccc5nc5ccccc45)C3)N(C(=O)CNC(=O)c3c4ccccc4nc4ccccc34)C2)N(C(=O)CNC(=O)c2c3ccccc3nc3ccccc23)C1 (stereo not drawn) [Example 56, N^4-Acetyl-4-amino-{2-(acridine-9-carboxamide)acetyl}prolinyl-4-amino-{2-(acridine-9-carboxamide)acetyl}prolinyl-4-amino-{2-(acridine-9-carboxamide)acetyl}prolinamide]
348 nm	505 nm	CC(=O)NC1CC(C(=O)NC2CC(C(=O)NC3CC(C(N)=O)N(C(=O)CNC(=O)c4c5ccccc5nc5c4[nH]c4ccccc45)C3)N(C(=O)CNC(=O)c3c4ccccc4nc4c3[nH]c3ccccc34)C2)N(C(=O)CNC(=O)c2c3ccccc3nc3c2[nH]c2ccccc23)C1 (stereo not drawn) [Example 57, N^4-Acetyl-4-amino-{2-(10H-indolo[3,2-b]quinoline-11-carboxamide)acetyl}prolinyl-4-amino-{2-(10H-indolo[3,2-b]quinoline-11-carboxamide)acetyl}prolinyl-{2-(10H-indolo[3,2-b]quinoline-11-carboxamide)acetyl}prolinamide]
275 nm	503 nm	CC(=O)NC1CC(C(=O)NC2CC(C(=O)NC3CC(C(N)=O)N(C(=O)CNC(=O)c4c5ccccc5nc5ccccc45)C3)N(C(=O)CNC(=O)c3c4ccccc4nc4c3[nH]c3ccccc34)C2)N(C(=O)CNC(=O)c2c3ccccc3nc3ccccc23)C1 (stereo not drawn) [Example 58, N^4-Acetyl-4-amino-{2-(acridine-9-carboxamide)acetyl}prolinyl-4-amino-{2-(10H-indolo[3,2-b]quinoline-11-carboxamide)acetyl}proliny-4-amino-{2-(acridine-9-carboxamide)acetyl}prolinamide]
309 nm	456 nm	CC(=O)N[C@H]1C[C@@H](C(=O)N[C@H]2C[C@@H](C(=O)N[C@H]3C[C@@H](C(N)=O)N(C(=O)CNC(=O)c4c5ccccc5nc5ccccc45)C3)N(C(=O)CNC(=O)c3c4ccccc4nc4ccccc34)C2)N(C(=O)CNC(=O)c2c3ccccc3nc3c2[nH]c2ccccc23)C1 [Example 60, N^4-Acetyl-4-amino-{2-(10H-indolo[3,2-b]quinoline-11-carboxamide)acetyl}prolinyl-4-amino-{2-(acridine-9-carboxamide)acetyl}prolinyl-4-amino-{2-(acridine-9-carboxamide)acetyl}prolinamide]
348 nm	488 nm	CC(=O)NC1CC(C(=O)NC2CC(C(=O)NC3CC(C(N)=O)N(C(=O)CNC(=O)c4c5ccccc5nc5c4[nH]c4ccccc45)C3)N(C(=O)CNC(=O)c3c4ccccc4nc4ccccc34)C2)N(C(=O)CNC(=O)c2c3ccccc3nc3c2[nH]c2ccccc23)C1 (stereo not drawn) [Example 61, N^4-Acetyl-4-amino-{2-(10H-indolo[3,2-b]quinoline-11-carboxamide)acetyl}prolinyl-4-amino-{2-(acridine-9-carboxamide)acetyl}prolinyl-4-amino-{2-(10H-indolo[3,2-b]quinoline-11-carboxamide)acetyl}prolinamide]
